From patent US8178077B2, “Drug development target protein and target gene, and method of screening” (Reverse Proteomics Research Institute Co., Ltd., priority 2004, dated 2012)
Where a name gives a salt, the structure may show the parent alone.

Biological target: T1, FLJ39196 clone-derived protein (human neurocalcin δ) (Homo sapiens, UniProt P61601)
T1 construct: A human full-length cDNA clone was expressed as a protein with an N-terminal His tag; His tag (N); made in house; host or cells: Escherichia coli BL21star(DE3)pLysS (pDEST17 Gateway expression plasmid)
Experiment: SEC/MS interaction analysis (size exclusion spin column and mass analysis) with FLJ39196 clone-derived protein
Type: binding
Excerpt: To analyze the interactions between commonly used drugs and proteins expressed from human full-length cDNA clones while keeping both the proteins and the compounds in non-modified, non-immobilized state, size exclusion chromatography (SEC) and mass analysis were used in combination (FIGS. 1, 2). The specific procedures are shown below.
The compound-protein mixture prepared in step 1 was subjected to chromatography using an SEC column, the compound and the protein were separated by SEC, and the compound that interacted with the bound compound or protein contained in the protein fraction was analyzed using a mass analyzer.
Protein concentrations were measured using BCA Protein Assay (PIERCE), in consideration of the purity calculated by SDS-PAGE.
Mass analysis was performed using LCQ DECA XP (Thermoelectron) or Q-TOFmicro (Micromass), equipped with an ESI probe. The LC pump used was Agilent 1100 (Yokogawa Analytical Systems), and the autosampler used was HTC-PAL (CTC Analytics) equipped with a cooling stacker.
In the SEC method using 384-well spin columns, Unifilter 100 (Whatman), packed with 10 μL (dry volume) of Bio-Gel P6 (BIO-RAD) and swollen with milliQ water, was used as the SEC column. 13.3 μL of a protein-free reference standard or a 25 μM protein standard and 0.7 μL of a multiplied liquid comprising 25 μM of each pharmaceutical compound (5% DMSO aqueous solution) were mixed; 9 μL of this mixture was aliquoted into the SEC spin columns. The SEC spin column was mounted on an acetonitrile-aliquoted 384-well U-bottom plate and centrifuged; the SEC spin column filtrate, which is a protein fraction, was retrieved in 50% acetonitrile. The protein precipitate produced by the acetonitrile was removed via centrifugation and filtration for deproteinization; the resulting filtrate was concentrated by centrifugation and re-dissolved in 10 μL of 50% methanol to obtain a mass analysis sample. The mobile phase supplied to the mass analyzer was 0.1% formic acid/50% methanol solution in the positive ion mode, and 0.1% ammonia/50% methanol solution in the negative ion mode; these mobile phases were used at a flow rate of 40 μL/min. 2-μL of mass analysis samples were injected using an autosampler at 2-minute intervals; the mass spectral intensity of the compound was measured to obtain the spectral intensity of the pharmaceutical compound contained in the SEC spin column filtrate (protein fraction eluted from SEC).

[1] = protein 0 μM (protein-free reference), compound 1 μM
[2] = protein 0 μM (protein-free reference), compound 10 μM
[3] = protein 0 μM (protein-free reference), compound 100 μM
[4] = protein 0 μM (protein-free reference), compound 250 μM
[5] = protein 23.75 μM, compound 1 μM
[6] = protein 23.75 μM, compound 10 μM
[7] = protein 23.75 μM, compound 100 μM
[8] = protein 23.75 μM, compound 250 μM
[9] = protein 47.5 μM, compound 10 μM
[10] = protein 47.5 μM, compound 100 μM
[11] = protein 47.5 μM, compound 250 μM

Compound | spectral intensity of the compound in the SEC spin column filtrate (protein fraction) [1] | spectral intensity of the compound in the SEC spin column filtrate (protein fraction) [2] | spectral intensity of the compound in the SEC spin column filtrate (protein fraction) [3] | spectral intensity of the compound in the SEC spin column filtrate (protein fraction) [4] | spectral intensity of the compound in the SEC spin column filtrate (protein fraction) [5] | spectral intensity of the compound in the SEC spin column filtrate (protein fraction) [6] | spectral intensity of the compound in the SEC spin column filtrate (protein fraction) [7] | spectral intensity of the compound in the SEC spin column filtrate (protein fraction) [8] | spectral intensity of the compound in the SEC spin column filtrate (protein fraction) (protein 47.5 μM, compound 1 μM) | spectral intensity of the compound in the SEC spin column filtrate (protein fraction) [9] | spectral intensity of the compound in the SEC spin column filtrate (protein fraction) [10] | spectral intensity of the compound in the SEC spin column filtrate (protein fraction) [11]
CN1CCC(=C2c3ccccc3Sc3ccccc32)CC1 [Pimethixene] | 2913965 | 4868887 | 58800844 | 224525009 | 2449690 | 5737072 | 121577640 | 265475649 | 2762592 | 9271060 | 197624997 | 359356100
O=C(c1ccc(OCCN2CCCCC2)cc1)c1c(-c2ccc(O)cc2)sc2cc(O)ccc12 [Raloxifene hydrochloride] | 3754698 | 2330594 | 7909682 | 10553153 | 3790373 | 6024709 | 124641622 | 157539770 | 3014448 | 17385466 | 122918120 | 666932700
COC(=O)[C@H]1[C@H]2C[C@@H]3c4[nH]c5cc(OC)ccc5c4CCN3C[C@H]2C[C@@H](OC(=O)/C=C/c2cc(OC)c(OC)c(OC)c2)[C@@H]1OC [Rescinnamine] | 9843174 | 6544896 | 12903374 | 7315419 | 11269941 | 21895843 | 215933519 | 288844471 | 17653515 | 40677751 | 675671326 | 1469409087
CCCCCCCCNC(C)C(O)c1ccc(SC(C)C)cc1 (stereo not drawn) [Suloctidil] | 6080126 | 3684060 | 4969067 | 9177432 | 4318261 | 7828150 | 163940015 | 357100809 | 5977944 | 7209043 | 507388292 | 742015343
CCOC(=O)Oc1c(OC)cc(C(=O)O[C@@H]2C[C@@H]3CN4CCc5c([nH]c6cc(OC)ccc56)[C@H]4C[C@@H]3[C@H](C(=O)OC)[C@H]2OC)cc1OC [Syrosingopine] | 38126829 | 47209784 | 41362697 | 38512184 | 63594361 | 101347281 | 465474678 | 596250311 | 70443152 | 105524442 | 897067633 | 1499127775
Clc1ccc(C(OCCN2CCCCC2)c2ccccc2)cc1 (stereo not drawn) [chloperastine] | 2920008 | 13165487 | 276180260 | 803023959 | 2972794 | 9288224 | 218420294 | 773924506 | 4085344 | 18612563 | 338617522 | 1411536255
CC(C)/N=c1\cc2n(-c3ccc(Cl)cc3)c3ccccc3nc-2cc1Nc1ccc(Cl)cc1 [clofazimine] | 1592610 | 3306068 | 1781607 | 1742291 | 2041846 | 15886830 | 138678443 | 380425425 | 2399851 | 57730302 | 312686548 | 411373516
CCc1cc2c(s1)N(C)C(=O)CN=C2c1ccccc1Cl [clotiazepam] | 8089543 | 19826757 | 251469420 | 633414607 | 8254340 | 25038949 | 283452799 | 759706893 | 9022620 | 60448900 | 657940514 | 1089985810
C[C@]12Cc3c[nH]nc3C[C@@H]1CC[C@@H]1[C@@H]2CC[C@@]2(C)[C@H]1CC[C@]2(C)O [stanozolol] | 3108300 | 2749518 | 3830491 | 4150230 | 3620481 | 10223886 | 127989356 | 194560574 | 3989532 | 25533379 | 619287498 | 778914733
